Source: patent publication US7803757B2, “Peptides based on the sequence of human lactoferrin and their use” (PharmaSurgics in Sweden AB, priority 1998, dated 2010)
Peptide text beside a SMILES is read from it. * marks the point of attachment. Acm = CC(=O)NC*

Tests used:
E. coli O14 = experiment: bactericidal activity, incubation with E. coli O14 (Example 3, exp. I and III); format: cell-based
Procedure: (§1) Human lactoferrin (hLF), peptide 3, and peptide 4, respectively, were incubated with two different strains of E. coli, E. coli O14 (experiment I) and O6K5 (experiment II), in diluted growth medium ( 1/100 BHI—brain heart infusion) for 2 hours. The peptides were also incubated with E. coli O14 in 0.05 mM KCl (pH 7) without any growth medium (experiment III). Different concentrations of the peptides were tested.
(§2) After the incubation, samples were taken for bacterial plating. Serial dilutions of five- and fourfold steps were used in experiments I and II, respectively, and of twofold steps in experiment III.
(§3) The concentrations of the different peptides required for killing 100% (experiments I and II) or 90% (experiment III) of the bacteria are given in table 2.

E. coli O6K5 [1] = experiment: microbicidal activity MMC99%, E. coli O6K5 (Example 28); format: cell-based; settings: E. coli O6K5 (Table 24)
Procedure, shortened: (§4)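 Peptides serially diluted in 1% BHI were incubated with E. coli O6K5 or C. albicans (~1-5×10^5 cells/ml) for 2 h at 37 °C, then spotted on blood agar overnight. MMC99% was the peptide concentration causing 99% reduction of the inoculum.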

Candida albicans [2] = experiment: fungicidal activity against Candida albicans, comparison with EP-A-0 629 347 peptides (Example 7); format: cell-based; settings: C. albicans, I (tenfold steps), 5 · 10^3 yeast cells per ml
Procedure: In this example an in vitro test was performed to compare the bactericidal and fungicidal activity of the peptides according to the invention with peptides described in EP-A-0 629 347. The peptide according to the invention used was peptide 4, and the peptides according to EP-A-0 629 347 called Morinaga 10, Morinaga 11, Morinaga 12, and Morinaga 13.
The peptides were incubated with E. coli O14 and Candida albicans. Two concentrations of C. albicans yeast cells were tested, 5·10^6 and 5·10^3 per ml. Different concentrations of the peptides were tested.
After the incubation, samples were taken for bacterial plating. Serial dilutions of tenfold steps were used in the experiments marked with I in table 5 and of twofold steps in the experiments marked with II.

[3] = test system: Candida albicans ATCC 64549; experiment: fungicidal and growth inhibitory activity, Candida albicans ATCC 64549 (Example 8); format: cell-based
Procedure: Candida albicans ATCC 64549 (1·10^5/ml) was incubated in the presence of the peptides during 2 hours at 37° C. in diluted growth medium (BHI, twofold serial dilutions starting with 50 μg/ml). The fungicidal activity was measured by culturing 5 μl from each incubation well on Saboroud agar plates.
The inhibition of growth was measured spectrophotometrically after 20 hours of incubation.

E. coli O6K5 [4] = experiment: bactericidal activity, incubation with E. coli O6K5 (Example 3, exp. II); format: cell-based; settings: Exp. II: 100% killing, E. coli O6K5, 1/100 BHI, 2 hours
Procedure: as §1, §2, §3

E. coli O6K5 [5] = experiment: urinary tract infection in mice, bacteria (CFU) in kidney (Example 6); format: in vivo; settings: 500 μg per mouse orally 30 minutes after instillation, 24 hours
Procedure: E. coli O6K5 was instilled into the urinary bladder of mice. 30 minutes after instillation the different agents specified in table 5 were administered orally in an amount of 500 μg per mouse and 24 hours after instillation the number of bacteria (CFU) present in bladder and in kidney was determined.
The control group consisted of 10 animals in experiment I and of 23 animals in experiment II. The animals in the control groups were given tap water instead of peptide or hLF.

Candida albicans [6] = experiment: fungicidal activity against Candida albicans strains (Example 4); format: cell-based
Procedure: In this example the fungicidal activity of the peptides according to the invention was tested and compared to the fungicidal activity of human lactoferrin. Different concentrations of hLF, peptide 3 and peptide 4 were incubated with different strains of Candida albicans and Candida krusei during 1-2 hours at 37° C. in 0.05 mM KCl at pH 7.0 at two different occasions—experiment I and II, respectively. After incubation samples were taken for plating on Saboroud plates.

C. albicans [7] = experiment: microbicidal activity MMC99%, C. albicans (Example 28); format: cell-based; settings: C. albicans (Table 24)
Procedure, shortened: as §4

C. albicans [8] = experiment: fungicidal activity MMC99%, C. albicans (Example 27); format: cell-based; settings: BHI diluted 1/100 (Table 23)
Procedure: In the examples, the minimal microbicidal concentrations (MMC) and minimal inhibitory concentrations (MIC) were determined as follows, unless otherwise specified in the examples. Bacterial or fungal strains were cultured in BHI medium over night at 37° C. A volume of the culture was transferred to a new tube with BHI and incubated for two more hours. Thereafter the cells were spun down and the pellet was suspended in BHI medium diluted 1/100 (1% BHI). The concentration of bacterial or fungal cells was spectrophotometrically determined at 650 nm. The microbial concentrations were also determined by viable counts. Peptides serially diluted in 1% BHI by twofold or tenfold steps were added in triplicate to the wells of a microtiterplate (200 μl per well). The bacterial or fungal cell solutions were added in 10 μl volumes to give a final concentration of approximately 1-5×10^5 cells per ml in the well. The microplate was incubated at 37° C. in a humid chamber for two hours. Thereafter 5 μl was taken from each well and added as a drop onto a blood agar plate and incubated over night at 37° C. The microplate was incubated for another 20 hours at 37° C. and thereafter analysed spectrophotometrically at 650 nm in a microplate reader (Emax, Molecular Devices, USA). The concentration of peptide causing a 99% reduction of the inoculum after 2 hours of incubation was defined as the MMC99%. The MIC value was defined as the concentration giving no increase in the absorbance value above the background level after 20 hours of incubation.
In this example the fungicidal activity of three of the peptides according to the invention was studied, and tested against three different fungi. The fungi were incubated in BHI medium diluted 1/100. The concentration of each peptide needed to kill 99% of the fungi (MMC99%) was determined.

`CC[C@H](C)[C@H](NC(=O)[C@H](CSCNC(C)=O)NC(=O)[C@H](CO)NC(=O)[C@@H](NC(=O)[C@@H]1CCCN1C(=O)[C@@H]1CCCN1C(=O)CNC(=O)[C@H](CCCNC(=N)N)NC(=O)[C@@H](NC(=O)[C@H](CCCCN)NC(=O)[C@H](CCCNC(=N)N)NC(=O)[C@H](CCSC)NC(=O)[C@H](CC(N)=O)NC(=O)[C@H](CCCNC(=N)N)NC(=O)[C@H](CCC(N)=O)NC(=O)[C@H](Cc1c[nH]c2ccccc12)NC(=O)[C@H](CCC(N)=O)NC(=O)[C@H](Cc1ccccc1)NC(=O)[C@H](CSCNC(C)=O)NC(=O)[C@H](CCCCN)NC(=O)[C@@H](NC(C)=O)[C@@H](C)O)C(C)C)C(C)C)C(=O)N[C@@H](CCCCN)C(=O)N[C@@H](CCCNC(=N)N)C(N)=O` [Peptide 4] (Ac-TKC(Acm)FQWQRNMRKVRGPPVSC(Acm)IKR-NH2) was tested, and the “Concentration of agent for 100%/90% killing” value (E. coli O14; Exp. I: 100% killing, E. coli O14, 1/100 BHI, 2 hours) was 4.4 µg/mL, the “Concentration of agent for 100%/90% killing” value (E. coli O14; Exp. III: 90% killing, E. coli O14, 0.05 mM KCl (pH 7) without growth medium) was 3.2 µg/mL and the MMC99% (E. coli O6K5 [1]) was 20. For the same compound, the “Concentration of agent for 100% killing” value (Candida albicans [2]) was 10 µg/mL, the “Concentration of agent for 100% killing” value ([3]; C. albicans ATCC 64549 1·10^5/ml, 2 hours 37° C., diluted BHI) was 6.2 µg/mL and the “Concentration of agent for inhibition of growth” value ([3]; C. albicans ATCC 64549, spectrophotometrically after 20 hours) was 6.2 µg/mL. The “Concentration of agent for 100%/90% killing” value (E. coli O6K5 [4]) was “≦7.8 μg/ml”, the “Statistical comparison of treatment group with control group of the number of bacteria, CFU, present in kidney (p, Mann-Whitney)” value (E. coli O6K5 [5]; Exp I, mouse strain CH/HeN) was “p = 0.0137” and the “Statistical comparison of treatment group with control group of the number of bacteria, CFU, present in kidney (p, Mann-Whitney)” value (E. coli O6K5 [5]; Exp II, mouse strain C3H/Tif) was “p = 0.0102”. For the same compound, the “ratio hLF/pep. (concentration for 99% killing)” value (Candida albicans [6]; Exp. I, C. albicans ATCC 64549) was over 40, the “Concentration of agent for 99% killing” value (Candida albicans [6]; Exp. I, C. albicans ATCC 64549, 0.05 mM KCl pH 7.0, 1-2 hours 37° C.) was 1.25 µg/mL and the “ratio hLF/pep. (concentration for 99% killing)” value (Candida albicans [6]; Exp. I, C. albicans CCUG 90028) was over 40. For the same compound, the “Concentration of agent for 99% killing” value (Candida albicans [6]; Exp. I, C. albicans CCUG 90028, 0.05 mM KCl pH 7.0) was 1.25 µg/mL, the “ratio hLF/pep. (concentration for 99% killing)” value (Candida albicans [6]; Exp. II, C. albicans ATCC 64549) was over 133 and the “Concentration of agent for 99% killing” value (Candida albicans [6]; Exp. II, C. albicans ATCC 64549, 0.05 mM KCl pH 7.0) was 1.5 µg/mL. The “ratio hLF/pep. (concentration for 99% killing)” value (Candida albicans [6]; Exp. II, C. albicans CCUG 599) was over 133, the “Concentration of agent for 99% killing” value (Candida albicans [6]; Exp. II, C. albicans CCUG 599, 0.05 mM KCl pH 7.0) was 1.5 µg/mL and the “ratio hLF/pep. (concentration for 99% killing)” value (Candida albicans [6]; Exp. II, C. albicans CCUG 1759) was over 133. For the same compound, the “Concentration of agent for 99% killing” value (Candida albicans [6]; Exp. II, C. albicans CCUG 1759, 0.05 mM KCl pH 7.0) was 1.5 µg/mL, the MMC99% (C. albicans [7]) was 5 and the MMC99% (C. albicans [8]) was 6.3.
